Here are results for eleven molecules from PubChem BioAssay (NCI).

As usually defined, the TGI is the concentration giving total growth inhibition.

What all share (experiment): DTP human tumour cell line panel, 48 h
Assay [1] concerns DMS 273 small cell lung.
Assay [2] relates to KM20L2 colon.
For assay [3], the system named is SNB-78 CNS.
In assay [4] the test system is UACC-257 melanoma.
Assay [5] relates to DMS 114 small cell lung.
The test system of assay [6] is DLD-1 colon.
In assay [7] the test system is NCI-H460 lung.
In assay [8] the test system is HL-60(TB) leukemia.
The test system of assay [9] is SF-268 CNS.
Assay [10] deals with NCI-H226 lung.
For assay [11], the system named is HCT-116 colon.
Assay [12] deals with M19-MEL melanoma.
Assay [13] relates to BT-549 breast.
The test system of assay [14] is T-47D breast.

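Briefly, cells in 96-well plates were exposed to five compound concentrations for 48 h, and endpoints were estimated by linear interpolation. TGI: total growth inhibition.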 A value given as a limit tells only on which side of the number the result lay.

On to `CS(=O)(=O)OCCCOS(C)(=O)=O`, for which the TGI in assay [1], in assay [2], in assay [3], in assay [4], in assay [5] and in assay [6] was above 100 µM throughout. In addition, the concentration for total growth inhibition (TGI) in assay [7], in [8], in assay [9], in assay [10], in assay [11] and in [12] was above 100 µM in each case.
As for `COc1cc(C2c3cc4c(cc3[C@@H](Nc3cccc([N+](=O)[O-])c3)C3COC(=O)[C@H]23)OCO4)cc(OC)c1O` (stereo not given in full), the TGI was 6.11 µM in assay [1]; above 42 µM in [2]; 53.9 µM in assay [3]; 35.2 µM in assay [4]; 9.18 µM in assay [5]; 17.1 µM in [6]. Further, the concentration for total growth inhibition (TGI) in [7] was 1.72 µM; in [8] it was 4.3 µM; in assay [9] it was above 51.5 µM; in [10], 7.94 µM; in [11], 21.6 µM; in assay [12], above 100 µM.
Turning to `CCCCCCCCCCCCCCCCCCOCC(COP(=O)([O-])OCC[N+](C)(C)C)OC` (stereo not given), the TGI in [1] was determined as 10.5 µM; in assay [2], 9.02 µM; in assay [3], 49.2 µM; in assay [4], 30.5 µM; in assay [5], 26.8 µM; in assay [6] it was 17.7 µM. The TGI in assay [7] was 17.6 µM; in assay [8], 13.6 µM; in assay [9], 51.8 µM; in assay [10], 44.7 µM; in [13] it was above 100 µM; in assay [14], above 100 µM. Further, the TGI in [11] was found to be 43.5 µM; in assay [12] it was 16.8 µM.
Consider `CCN(CC)CCCC(C)NC(=O)c1ccc2c(c1)C(=O)c1ccccc1C2=O` (stereo not given), for which the concentration for total growth inhibition (TGI) in [1] came out at 46.2 µM; in [2], 51.9 µM; in [3] it was 47.4 µM; in assay [4], 26.1 µM; in assay [5], 20 µM; in [6], 45.4 µM. In addition, the concentration for total growth inhibition (TGI) in assay [7] came to 39.8 µM; in assay [8], 34.2 µM; in assay [9], 80.4 µM; in assay [10] it was 49 µM; in assay [11], 51.7 µM; in assay [12], 32 µM.
Turning to `CCCCCCC(C)OC(=O)/C=C(\CC(=O)OC(C)CCCCCC)C(=O)OC(C)CCCCCC` (stereo not given), the concentration for total growth inhibition (TGI) in assay [1], in assay [2], in assay [3], in assay [4], in assay [5] and in assay [6] was above 100 µM each time. The TGI in assay [7], in [8], in assay [9], in [10], in [11] and in assay [12] was above 100 µM in each case.
Regarding `C=C1C(=O)O[C@@H]2[C@H](O)[C@@H](C)[C@@H]3C=CC(=O)[C@@]3(C)[C@H](OC(=O)C=C(C)C)[C@H]12`, the TGI in [1] was 3.24 µM; in assay [2], 5.12 µM; in [4] it was 4.74 µM; in assay [5] it was 6.57 µM; in assay [6], 0.878 µM; in assay [7], 6.02 µM. Besides, the total growth inhibition concentration (TGI) is 0.412 µM in assay [8]; 3.59 µM in assay [9]; 4.17 µM in assay [10]; 1.72 µM in assay [11]; 2.7 µM in assay [12].
On to `O=C1c2ccccc2C(=O)c2c(O)ccc(O)c21`, for which the total growth inhibition concentration (TGI) in assay [1], in assay [3], in [4], in assay [5], in assay [6] and in assay [7] was above 100 µM throughout. Moreover, the TGI in assay [8] was above 100 µM; in assay [9] it was above 100 µM; in assay [11] it was above 100 µM; in [12], 69.2 µM.
On to `C=CCN(c1cc(OC)c2[nH]cc(C)c2c1[N+](=O)[O-])S(C)(=O)=O`, for which the concentration for total growth inhibition (TGI) in assay [4], in [7], in [8], in assay [9], in [10] and in [13] was above 100 µM in each case. Besides, the TGI in [14] and in assay [11] was above 100 µM throughout.
As to `CCOc1ccc2nc(NC(NC(=O)c3cccnc3)(C(F)(F)F)C(F)(F)F)sc2c1`, the TGI is 69.4 µM in assay [4]; above 100 µM in assay [7]; 94.8 µM in assay [8]; above 100 µM in assay [9]; above 100 µM in [10]; above 100 µM in assay [13]. In addition, the TGI in assay [14] is 58.4 µM; in assay [11], above 100 µM.
For the molecule `N=c1c2c(=S)n(-c3ccccc3)c(=S)n(-c3ccccc3)c2nc(SCCN2CCOCC2)n1-c1ccccc1`, the total growth inhibition concentration (TGI) was determined as 4.28 µM in assay [4]; 5.96 µM in assay [7]; 3.31 µM in assay [8]; 4.41 µM in [9]; 15.5 µM in [10]; 4.51 µM in [13]. Moreover, the results for the TGI in assay [14] and in [11] were 8.03 µM and 3.45 µM, respectively.
Turning to `CC(=O)OCC1=C(C)C[C@H]([C@@H](COC(C)=O)C2CCC3C4C[C@H]5O[C@]56CC=CC(=O)[C@]6(C)C4CC[C@@]32C)OC1=O` (stereo not given in full), the TGI in assay [4] amounted to 2.99 µM; in assay [7] it was 2.91 µM; in assay [8] it was 0.198 µM; in assay [9] it was 6.78 µM; in assay [10], 1.74 µM; in assay [13], 3.65 µM. The concentration for total growth inhibition (TGI) amounted to 1.41 µM in assay [14] and 0.3 µM in assay [11].
